Several values for one entry are separate records, joined by “and”; a condition that tells them apart may be missing. Equal entries are not always repeated.
Key:
[1] = Presto Blue viability test on MRC-5 lung fibroblasts; format: cell-based, human; settings: human
Procedure: (§1) Human MRC-5 lung fibroblast cells were used (ICLC-IRCCS San Martino, Genoa, Italy); cells were expanded in DMEM/F12 50%/50% (Dulbecco’s Modified Eagle Medium/Ham’s F12 50/50 Mix; Corning, Pisa, Italy; cat. n. 10-090-CV; ThermoFisher Scientific, Segrate (MI), Italy, supplemented with 10% fetal bovine serum (GIBCO-Invitrogen, GIBCO-ThermoFisher Life Science, Segrate, Italy, catalog number (cat. n.) 10270-098) and 2 mM glutamine (Euro-Clone; Pero, MI, Italy; cat. n. EC B3000D) at 37 °C under 5% CO2 aeration. After expansion, cells were washed three times with sterile phosphate buffered solution (PBS; VWR, Milano, Italy, cat. n. 392-0442), detached with 0.25% Trypsin solution (Corning; cat-25-050-CI), collected in complete medium, and centrifuged at 400× g for 12 min. The supernatant was discarded, and cells were suspended in PBS, counted, and centrifuged again as mentioned above. Cells were then resuspended in complete medium, seeded into 24-well plates (20,000 cells/well) and allowed to adhere to the plate for the next 24 h. Subsequently, non-adherent cells and the plating medium were discarded, and fresh standard medium or treatment medium were added. Treatment media contained BPPB at different concentrations (0.5, 1.0, 5.0, 25.0, 50.0, 75.0 and 100.0 μM); triplicate wells for each concentration were tested simultaneously, as well as controls. The medium was changed every day. Cells were photographed and assayed for viability prior to treatment (time 0; T0) and after 24, 48, and 72 h subsequently (T24, T48 and T72). Bright field images of each well/treatment were acquired using a Nikon Digital Sigh DS-5Mc camera (Nikon Europe B.V., Amstelveen, The Netherlands) mounted on an inverted Olympus CKX-41 microscope (Evident Europe GmbH, Segrate (Milan), Italy) (4×, 10× and 20× enlargements).
(§2) Briefly, at the indicated time points, cells were washed twice with PBS and incubated in the dark a 37 °C for 4 h with fresh complete medium supplemented with 10% Presto Blue ^TM. Aliquots of the Presto Blue ^TM-containing medium were incubated in the same conditions, to be used as reaction blanks. Supernatants and blanks were then collected and analyzed using a Spectra MR multi-plate reader spectrophotometer (Dynex Technologies; Chantilly, VA, USA) at 570 and 600 nm. The results were calculated as the average of treatment replicas (triplicates) ± S.D., normalizing each 570 nm reading to its corresponding value at 600 nm, subtracting the average blank value, and normalizing the results at each time point to the initial reading at T0.

[2] = system: Human MRC-5 lung fibroblast cells; test: as above; format: cell-based; settings: for IC50: concentration range 0.5–5 µM
Procedure: as §1, §2

[3] = MTT cytotoxicity assay on Cos-7 cells; format: cell-based, African green monkey; settings: African green monkey
Procedure: (§3) To assess the cytotoxicity properties of BPPB, the MTT (3-(4,5-dimethylthiazol-2-yl)-2,5-diphenyltetrazolium bromide) cell proliferation assay (Abcam, Prodotti Gianni s.r.l., Milano, Italy, Cat#ab2011091) was performed, following the manufacturer’s protocol, as previously reported. This time, the increasing concentrations of BPPB were in the range of 0.4–85.3 µM. The cell survival rate, expressed as cell viability percentage (%), was evaluated based on the experimental outputs of treated groups vs. the untreated groups (CTR) and was calculated as follows: cell viability (%) = (OD treated cells − OD blank)/(OD untreated cells − OD blank) × 100%.
(§4) In this study, the cytotoxicity profile of BPPB was assessed in both immortalized human liver cells (HepG2) cells, as in our previous works, and in transformed African green monkey kidney fibroblast cells (Cos-7), as reported in a recent paper. Specifically, we evaluated the cytotoxicity of BPPB by carrying out both the MTT proliferation assay and the lactate dehydrogenase (LHD) cytotoxicity assay, which measures the LDH activity as an indicator of cell death. Both cell lines were exposed for 24 h to increasing concentrations of BPPB (0.4–85.3 µM). Growth inhibition/death were determined by the MTT test, while cell cytotoxicity was determined by LDH assay, with respect to untreated control cells. Results are reported as bar graphs in Figure 8 and as dispersion graphs in Figures S13 and S14 in Supplementary Materials (Section S2).

Cos-7 cells = test: MTT cytotoxicity assay on Cos-7 cells; format: cell-based, African green monkey; settings: for IC50: MTT, concentration range 0.4–85.3 µM
Procedure: as §3, §4

HepG2 cells = test: LDH cytotoxicity assay on HepG2 cells; format: cell-based; settings: LDH test; 24 h
Procedure: To assess the cytotoxicity properties of BPPB, the lactate dehydrogenase (LDH) cytotoxicity assay (Abcam, Cat#ab102526) was performed, following manufacturer’s protocol, as previously described. This time, the increasing concentrations of BPPB were in the range 0.4–85.3 µM.
as §4

Work on c1ccc([P+](CCCCCCCCCCCC[P+](c2ccccc2)(c2ccccc2)c2ccccc2)(c2ccccc2)c2ccccc2)cc1 [BPPB, 1,1-(1,12-dodecanediyl)bis [1,1, 1]-triphenylphosphonium di-bromide] yielded a selectivity ratio at 24 h ([1]; 24 h, read-out: Selectivity index (SI) = IC50 MRC-5 / IC50 HTLA-ER) of 2.5, a selectivity ratio at 48 h ([1]; 48 h, read-out: Selectivity index (SI) = IC50 MRC-5 / IC50 HTLA-ER) of roughly 1 and a selectivity ratio at 72 h ([1]; 72 h, read-out: Selectivity index (SI) = IC50 MRC-5 / IC50 HTLA-ER) of roughly 1. The viability at 48 h, 1 µM ([1]; MRC-5 lung fibroblast cells, 1.0 µM, 48 h, read-out: Percentage of viable MRC-5 cells with respect to seeded cells at T0) was 26.8%, the viability at 72 h, 1 µM ([1]; MRC-5 lung fibroblast cells, 1.0 µM, 72 h, read-out: Percentage of viable MRC-5 cells with respect to seeded cells at T0) was 30.6% and the viability at 5 µM ([1]; MRC-5 lung fibroblast cells, 5 µM, 48–72 h, read-out: Cell viability MRC-5) was 3%. It also gave a viability at 24 h, 5 µM ([1]; MRC-5 lung fibroblast cells, 5 µM, 24 h, read-out: Cell viability MRC-5) of 38%, a viability at 48 h, 5 µM ([1]; MRC-5 lung fibroblast cells, 5.0 µM, 48 h, read-out: Percentage of viable MRC-5 cells with respect to seeded cells at T0) of 2.78% and a viability at 72 h, 5 µM ([1]; MRC-5 lung fibroblast cells, 5.0 µM, 72 h, read-out: Percentage of viable MRC-5 cells with respect to seeded cells at T0) of 3.04%. The “Selectivity index (SI) = IC50 MRC-5 / IC50 HTLA-230” value ([2]; 24 h) was 11.68, the “Selectivity index (SI) = IC50 MRC-5 / IC50 HTLA-ER” value ([2]; 24 h) was 2.49 and the IC50 ([2]; 24 h exposure) was 2770 nM. The “Selectivity index (SI) = IC50 MRC-5 / IC50 HTLA-230” value ([2]; 48 h) was 3.77, the “Selectivity index (SI) = IC50 MRC-5 / IC50 HTLA-ER” value ([2]; 48 h) was 0.80 and the “Selectivity index (SI) = IC50 MRC-5 / IC50 HTLA-230” value ([2]; 72 h) was 4.01 and 4.07. For the same molecule, the “Selectivity index (SI) = IC50 MRC-5 / IC50 HTLA-ER” value ([2]; 72 h) was 1.11, the “Fold higher SI for HTLA-ER than that of ETO” value ([2]; BPPB SI vs MRC-5, 24 h (2.49) against ETO SI (0.32)) was 7.8 fold and the IC50 ([2]; Homo sapiens, MRC5, 24 h, 24 h exposure) was 2800 nM. The IC50 ([2]; Homo sapiens, MRC5, 48 h, 48 h exposure) was 740 ± 572 nM, the IC50 ([2]; Homo sapiens, MRC5, 72 h, 72 h exposure) was 928 ± 896 nM and the “Effect on plated MRC-5 cells” value ([2]; any concentration equal to or higher than 25 µM, within 24 h) was “detachment and death of all plated cells”. For the same molecule, the viability at 24 h, 4.3 µM ([3]; Cos-7 cells, 4.3 µM, read-out: Cell viability Cos-7 (MTT)) was 64.2%, the viability at 24 h, 8.5 µM ([3]; Cos-7 cells, 8.5 µM, read-out: Cell viability Cos-7 (MTT)) was 27.4% and the selectivity ratio at 24 h ([3]; read-out: Selectivity index (SI) = IC50 Cos-7 / IC50 HTLA-ER) was 4.42. For the same molecule, the “Selectivity index (SI) = IC50 Cos-7 / IC50 HTLA-230” value (Cos-7 cells; 24 h) was 20.72, the IC50 (Cos-7 cells; 24 h) was 4910 ± 810 nM and the IC50 (Cos-7 cells; Chlorocebus sabaeus, COS-7, 24 h) was 4900 nM. For the same molecule, the “Concentrations with a safety profile toward Cos-7” value (Cos-7 cells; MTT test, 24 h) was no more than 4.3 µM and the “Concentrations with a safety profile toward HepG2” value (HepG2 cells) was no more than 8.5 µM.

From paper PMC11434613, “The Remarkable and Selective In Vitro Cytotoxicity of Synthesized Bola-Amphiphilic Nanovesicles on Etoposide-Sensitive and -Resistant Neuroblastoma Cells” (Nanomaterials, 2024)
